From patent US6914151B1, “Crystallization processes for the formation of stable crystals of aspartame derivative” (Ajinomoto Co., Inc., priority 1998, dated 2005)

Key:
[1] = Stability test at 70° C. of crystals (remaining ratio of N-(3,3-dimethylbutyl)-APM); format: physicochemical
Method: The resulting G-type crystals and A-type crystals of N-(3,3-dimethylbutyl)-APM were tested at 70° C., concerning their stability. […] The relationship between the storage time and the remaining ratio of N-(3,3-dimethylbutyl)-APM in this test will be shown below in Table 1.

[2] = on the weight basis, cited from earlier work

| Remaining ratio ([1]; time elapsed 0 hrs) [wt. %] | Remaining ratio ([1]; time elapsed 52 hrs) [wt. %] | Remaining ratio ([1]; time elapsed 160 hrs) [wt. %] | Remaining ratio ([1]; time elapsed 160 hrs, listed as A-type crystals) [wt. %] | Remaining ratio ([1]; time elapsed 160 hrs, listed as G-type crystals) [wt. %] | SMILES | sweetening potency relative to aspartame ([2]; times that of aspartame) | sweetening potency relative to sucrose ([2]; times that of sucrose (table sugar)) |
| --- | --- | --- | --- | --- | --- | --- | --- |
| 95 | 95 | 94 | 94 |  | COC(=O)[C@H](Cc1ccccc1)NC(=O)[C@H](CC(=O)O)NCCC(C)(C)C [A, N-[N-(3,3-dimethylbutyl)-L-α-aspartyl]-L-phenylalanine methyl ester] |  |  |
| 96 | 87 | 34 |  | 34 | COC(=O)[C@H](Cc1ccccc1)NC(=O)[C@H](CC(=O)O)NCCC(C)(C)C [G, N-[N-(3,3-dimethylbutyl)-L-α-aspartyl]-L-phenylalanine methyl ester, reference compound] |  |  |
|  |  |  |  |  | COC(=O)[C@H](Cc1ccccc1)NC(=O)[C@H](CC(=O)O)NCCC(C)(C)C [N-(3,3-dimethylbutyl)-ATM, N-[N-(3,3-dimethylbutyl)-L-α-aspartyl]-L-phenylalanine methyl ester] | at least 50 times | about 10,000 times |
